Reference: article PMC9445589, “Apolipoprotein E mimetic peptide COG1410 combats pandrug-resistant Acinetobacter baumannii” (Frontiers in Microbiology, 2022)
Values after ≈ are worked out from the molar mass of the structure shown. “Also recorded” adds a separate entry of the source. Non-standard residues stand in square brackets, D forms with d. Residues, ends and D or L forms follow the SMILES beside them. Aib = CC(C)(N)C(=O)O

Columns and labels:
[1] = stability in human plasma, disk diffusion read-out; details: 100% human plasma, 10 mg/ml, 37°C, first 2 h; disk diffusion on A. baumannii YQ4, three independent experiments
Experimental: In order to determine the stability in human plasma, COG1410 was dissolved in1 ml of 100 % human plasma with the final concentration of 10 mg/ml and incubated at 37°C without shaking. Aliquots of 100 μl were taken at 0, 1, 2, 4, 6, 8, and 10 h. The log-phase culture of A. baumannii YQ4 was prepared as described above. About 200 μl of culture was mixed with 6 ml of 0.8% soft agar to make a two-layered plate. After air drying for 30 min, four 6-mm paper disks were placed on the top, and 6-μl aliquots of COG1410 at different time points were dropped on the paper disks. After 18 h of incubation at 37°C, the inhibition zones were recorded by a digital camera, and the inhibition diameters were measured by image J. Three independent experiments were performed.
About 10 mg/ml of COG1410 was incubated with 100% human plasma at 37°C and sampled at different time points. The stability of COG1410 was determined by evaluating the antibacterial activity against PDR A. baumannii YQ4 through the disk diffusion assay. The diameters of inhibition were measured. Three independent experiments were performed and data were represented as mean ± SD. The statistical significance between initial and different points was analyzed by Student's t-test. ^* indicated p < 0.05; ^*** indicated p < 0.001. Click here for additional data file.

[2] = tested on: methicillin-resistant Staphylococcus aureus 14–55; details: microdilution method in the corresponding broth
A. baumannii YQ4 biofilm = assay: static biofilm inhibition, crystal violet; type: cell-based, Acinetobacter baumannii; details: 48 h
Experimental: Static biofilm inhibition was performed as described previously (Gaddy and Actis, [2009]). Briefly, the log-phase culture of A. baumannii YQ4 was prepared as described above. About 200 μl of culture was seeded in each cell of the 96-well PVC plate with OD600 of 0.01 (ca. 1 × 10^6 CFU/ml), which was exposed to different COG1410 solutions with the final concentrations ranging from 0.5 to 128 μg/ml. Each concentration was determined in eight wells. After incubation at 37°C for 48 h, the planktonic bacteria were removed by washing three times with sterilized water, followed by fixing in methanol for 15 min and staining with 0.1% crystal violet (CV) for 15 min. Excess CV was washed off, and the bound CV was eluted from the biofilm into 150 μl of 95% ethanol and quantitated spectrophotometrically at 600 nm using a Biotek Synergy H1 plate reader. The experiments were performed in triplicate.

[3] = tested on: Mycobacterium smegmatis MC^2155; details: Mycobacterium MC^2155
[4] = tested on: Caenorhabditis elegans (Bristol N2) infected with A. baumannii YQ4; assay: nematode killing assay, C. elegans infection model; details: 16 μg/ml COG1410 in NGM plate, versus untreated group
A. baumannii YQ4 [5] = assay: scanning electron microscopy (SEM) of treated cells; type: cell-based, Acinetobacter baumannii; details: 1× MIC (16 μg/ml), PBS, 37°C, 30 min
Experimental: The log-phase culture of A. baumannii YQ4 was prepared as described above, harvested, and washed once with PBS. The pellets were suspended in PBS supplemented with 1 × COG1410 (16 μg/ml) or 1 × polymyxin B (16 μg/ml) and incubated at 37°C for 30 min. The untreated culture was used as a positive control to observe the morphology of the intact cell. […] After washing three times with PBS, the cells were post-fixed in 1% osmium at 4 °C for 1 h. After washing in distilled water for 1 h, the bacteria were dehydrated in the ascending concentrations of ethanol. Finally, these samples were transferred to ThermoFisher Quattro SEM for image collection after tert-butanol freeze-drying and sputter coating.

[6] = tested on: pandrug-resistant (PDR) Acinetobacter baumannii YQ4
A. baumannii YQ4 [7] = assay: antibacterial activity (LC99.9) in PBS or 50% pooled human plasma; type: cell-based, Acinetobacter baumannii; details: 2 h, 37°C
Experimental: The antibacterial activity of COG1410 in plasma was performed as described previously (De Breij et al., [2018]). Briefly, the log-phase culture of A. baumannii YQ4 was exposed to different concentrations of COG1410 in PBS or PBS supplemented with 50% (v/v) pooled human plasma. After incubation with shaking at 200 rpm at 37°C for 2 h, the CFU was counted on LB agar. LC99.9 indicates the lowest peptide concentration that kills ≥99.9% of bacteria. The experiments were conducted independently in triplicate.

A. baumannii YQ4 [8] = assay: dynamic time-kill assay in PBS
[9] = tested on: clinically collected A. baumannii strains
Experimental: (§1) Strain stocks were maintained at −80°C in 10% glycerol. Bacteria were streaked on fresh plates before each experiment. Most of them were cultured in LB broth containing 10 g/L NaCl at 37°C, except for Mycobacteria in 7H9 broth and Enterococcus in BHI broth. Porphyromonas gingivalis was cultured in BHI broth supplemented with 1 μg/ml vitamin k1, 5 μg/ml hemin, and 5 mg/ml L-cysteine hydrochloride at 37°C in the anaerobic chamber. The minimal inhibitory concentrations (MICs) of antimicrobials were determined using the microdilution method in the corresponding broth.
TAble S2. Determination of bactericidal effect of COG1410 against clinically collected A. baumannii strains. MIC was measured in LB broth by microdilution method.

[10] = tested on: PDR Acinetobacter baumannii YQ4; assay: microbe, parasite or virus in culture; type: cell-based
Experimental: as §1
The pandrug-resistant A. baumannii YQ4 was collected from the clinical laboratory of the second hospital in Nanjing. The complete genome was sequenced by Nanopore, and the data were deposited in the GenBank with accession number CP053033.

[11] = tested on: Mycobacterium tuberculosis H37Rv; details: microdilution method, 7H9 broth

CC(=O)N[C@@H](C)C(=O)N[C@@H](CO)C(=O)NC(C)(C)C(=O)N[C@@H](CC(C)C)C(=O)N[C@@H](CCCNC(=N)N)C(=O)N[C@@H](CCCCN)C(=O)N[C@@H](CC(C)C)C(=O)NC(C)(C)C(=O)N[C@@H](CCCCN)C(=O)N[C@@H](CCCNC(=N)N)C(=O)N[C@@H](CC(C)C)C(=O)N[C@@H](CC(C)C)C(N)=O [COG1410, acetyl-AS-Aib-LRKL-Aib-KRLL-amide] (Ac-AS[Aib]LRKL[Aib]KRLL-NH2)
change of inhibition diameter / degradation [1]: did not significantly change; also recorded: does not seem to be significantly degraded
MIC [2]: >256 µg/mL
biofilm formation, in words (A. baumannii YQ4 biofilm; 1/2 MIC, crystal violet): significantly reduced biofilm formation
reduction of biofilm mass (A. baumannii YQ4 biofilm; 1× MIC, 37°C, crystal violet OD600, versus untreated control): 55%
MIC [3]: 16 µg/mL (≈ 11.4 µM)
survival of infected nematodes [4]: alleviated the death of infected nematodes but not statistically significantly
cell morphology by SEM (A. baumannii YQ4 [5]): intact, with little debris observed
minimal bactericidal concentration (MBC) [6]: 16 µg/mL (≈ 11.4 µM)
LC99.9 (A. baumannii YQ4 [7]; PBS with 50% (v/v) pooled human plasma): 8 µg/mL
LC99.9 (A. baumannii YQ4 [7]; PBS, lowest concentration that kills ≥99.9% of bacteria): 2 µg/mL
elimination of the inoculum (A. baumannii YQ4 [8]; 5 × MIC (80 μg/ml), within 5 min, PBS, inoculum 1 × 10^8 CFU/ml): completely eliminated
time to eliminate large inocula (A. baumannii YQ4 [8]; inocula 10^8 CFU/ml): ≤ 30 min
MICs over 107 clinically collected A. baumannii strains ([9]; clinically collected strains): 16 to 32 µg/mL
MIC ([9]; strain Ab3-1 (MDR-Ab, hydrothorax and ascite), LB broth): 32 µg/mL (≈ 22.7 µM)
MIC ([10]; PDR YQ4): 11.3 µM
MIC ([10]; microdilution method, LB broth): 16 µg/mL
MIC [11]: 16 µg/mL (≈ 11.4 µM)
